Earlier results in article PMC10879402, “Comparative Study of Dermal Pharmacokinetics Between Topical Drugs Using Open Flow Microperfusion in a Pig Model” (Pharmaceutical Research, 2023).
Blank lines part the entries; values can stand above or below the compound they belong to.

Experiments:
[1] = parameters: method as in ref 52 (PF-06263276), ref 51 (PF-06763809); settings: formulation used in this study (PF-06263276 4% solution, PF-06763809 2.3%); ref 52 (PF-06263276), ref 51 (PF-06763809)
[2] = parameters: method as in ref 64 (a number printed in a supplementary file, which may have a reference list of its own: not looked up in the article's list); settings: topical brepocitinib 0.1%, 0.3%, 1% and 3%
[3] = parameters: method as in PMID 32949620; settings: topical application of a […] cream formulation

Structure (SMILES): CCc1cc(O)c(F)cc1-c1ccc2c(-c3nc4c([nH]3)CCN(C(=O)c3cnc(N5CCCCC5)cn3)C4)n[nH]c2c1 [PF-06263276]
efficacy in human psoriasis plaque test [1]: no efficacy

Structure (SMILES): Cn1cc(Nc2nccc(N3C[C@H]4CC[C@@H](C3)N4C(=O)[C@@H]3CC3(F)F)n2)cn1 [brepocitinib]
outcome in psoriasis clinical study [2]: did not meet the primary and secondary endpoints

dermal ruxolitinib concentration (total) [3]: 63 µM
dermal ruxolitinib concentration (unbound) [3]: 12 µM
Structure (SMILES): N#CC[C@H](C1CCCC1)n1cc(-c2ncnc3[nH]ccc23)cn1 [ruxolitinib]
